Experimental data reported in patent publication US12660819B2, “Herbicidal derivatives” (SYNGENTA CROP PROTECTION AG, priority 2020, dated 2026).

How the values were obtained:
Assay type in all cases: in vivo
[1] = system: Abutilon theophrasti (ABUTH); assay: Post-emergence Test (glasshouse, percentage damage to the plant); conditions: post-emergence spray, 1000 g/ha unless otherwise stated, evaluated after 13 days
How it was run: (§1)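 Scored 13 days after spraying as percentage plant damage in five bands (5=81–100%, 4=61–80%, 3=41–60%, 2=21–40%, 1=0–20%). Spray at 1000 g/ha unless stated, in acetone/water 50:50 plus 0.5% Tween 20, onto sown glasshouse pots (24/16 °C, 14 h light, 65% humidity).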

[2] = system: Amaranthus retoflexus (AMARE); assay: as above; conditions: post-emergence spray, 1000 g/ha unless otherwise stated, evaluated after 13 days
How it was run: as §1

[3] = system: Echinochloa crus-galli (ECHCG); assay: as above; conditions: post-emergence spray, 1000 g/ha unless otherwise stated, evaluated after 13 days
How it was run: as §1

[4] = system: Ipomoea hederacea (IPOHE); assay: as above; conditions: post-emergence spray, 1000 g/ha unless otherwise stated, evaluated after 13 days
How it was run: (§2)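 Spray treatment of sown glasshouse pots at 1000 g/ha (default rate), vehicle acetone/water 50:50 plus 0.5% Tween 20. Read-out: percentage damage after 13 days, converted to a score where 5 denotes 81-100% and 1 denotes 0-20%.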

Setaria faberi (SETFA) [5] = assay: as above; conditions: post-emergence spray, 1000 g/ha unless otherwise stated, evaluated after 13 days
How it was run: as §2

Zea mays (ZEAMX) [6] = assay: as above; conditions: post-emergence spray, 1000 g/ha unless otherwise stated, evaluated after 13 days
How it was run: as §2

[7] = system: Amaranthus retoflexus (AMARE); assay: Pre-emergence Test (glasshouse, percentage damage to the plant); conditions: 1000 g/ha unless otherwise stated, five-point scale
Setaria faberi (SETFA) [8] = assay: as above; conditions: 1000 g/ha unless otherwise stated, five-point scale
[9] = system: Echinochloa crus-galli (ECHCG); assay: as above; conditions: 1000 g/ha unless otherwise stated, five-point scale
[10] = system: Ipomoea hederacea (IPOHE); assay: as above; conditions: 1000 g/ha unless otherwise stated, five-point scale
[11] = system: Abutilon theophrasti (ABUTH); assay: as above; conditions: 1000 g/ha unless otherwise stated, five-point scale
Zea mays (ZEAMX) [12] = assay: as above; conditions: 1000 g/ha unless otherwise stated, five-point scale

| SMILES | Post-emergence Test ABUTH, percentage damage to the plant (five-point scale) [1] | Post-emergence Test AMARE, percentage damage to the plant (five-point scale) [2] | Post-emergence Test ECHCG, percentage damage to the plant (five-point scale) [3] | Post-emergence Test IPOHE, percentage damage to the plant (five-point scale) [4] | Post-emergence Test SETFA, percentage damage to the plant (five-point scale) (Setaria faberi (SETFA) [5]) | Post-emergence Test ZEAMX, percentage damage to the plant (five-point scale) (Zea mays (ZEAMX) [6]) | percentage damage to the plant, AMARE [7] | percentage damage to the plant, SETFA (Setaria faberi (SETFA) [8]) | percentage damage to the plant, ECHCG [9] | percentage damage to the plant, IPOHE [10] | percentage damage to the plant, ABUTH [11] | percentage damage to the plant, ZEAMX (Zea mays (ZEAMX) [12]) |
| --- | --- | --- | --- | --- | --- | --- | --- | --- | --- | --- | --- | --- |
| CCn1c(C)c(-c2ccc(Cl)s2)c(=O)c(C(=O)O)c1-c1ccc(Cl)c(Cl)c1 [Compound 63, 5-(5-chloro-2-thienyl)-2-(3,4-dichlorophenyl)-1-ethyl-6-methyl-4-oxo-pyridine-3-carboxylic acid] | 3 (3=41-60%) | 3 (3=41-60%) | 4 (4=61-80%) | 3 (3=41-60%) | 3 (3=41-60%) | 3 (3=41-60%) | 4 (4=61-80%) | 3 (3=41-60%) | 1 (1=0-20%) | 2 (2=21-40%) | 2 (2=21-40%) | 1 (1=0-20%) |
| CCn1c(C)c(-c2cc(F)c(F)c(F)c2)c(=O)c(C(=O)O)c1-c1ccc(Cl)c(Cl)c1 [Compound 73, 2-(3,4-dichlorophenyl)-1-ethyl-6-methyl-4-oxo-5-(3,4,5-trifluorophenyl)pyridine-3-carboxylic acid] | 3 (3=41-60%) | 2 (2=21-40%) | 3 (3=41-60%) | 3 (3=41-60%) | 4 (4=61-80%) | 2 (2=21-40%) | 1 (1=0-20%) | 4 (4=61-80%) | 2 (2=21-40%) | 2 (2=21-40%) | 2 (2=21-40%) | 1 (1=0-20%) |
| CCn1c(C)c(-c2ccc(C(F)(F)F)cc2)c(=O)c(C(=O)O)c1-c1ccc(Cl)c(Cl)n1 [Compound 151, 2-(5,6-dichloro-2-pyridyl)-1-ethyl-6-methyl-4-oxo-5-[4-(trifluoromethyl)phenyl] pyridine-3-carboxylic acid] | 3 (3=41-60%) | 0 | 3 (3=41-60%) | 3 (3=41-60%) | 4 (4=61-80%) | 2 (2=21-40%) | 1 (1=0-20%) | 4 (4=61-80%) | 4 (4=61-80%) | 5 (5=81-100%) | 1 (1=0-20%) | 2 (2=21-40%) |
| CCn1c(C)c(-c2cnc(F)c(F)c2)c(=O)c(C(=O)O)c1-c1ccc(Cl)c(Cl)c1 [Compound 59, 2-(3,4-dichlorophenyl)-5-(5,6-difluoro-3-pyridyl)-1-ethyl-6-methyl-4-oxo-pyridine-3-carboxylic acid] | 3 (3=41-60%) | 3 (3=41-60%) | 3 (3=41-60%) | 3 (3=41-60%) | 4 (4=61-80%) | 3 (3=41-60%) | 1 (1=0-20%) | 4 (4=61-80%) | 2 (2=21-40%) | 3 (3=41-60%) | 3 (3=41-60%) | 1 (1=0-20%) |
| CCn1c(C)c(-c2ccc(OC)c(F)c2)c(=O)c(C(=O)O)c1-c1ccc(Cl)c(Cl)c1 [Compound 102, 2-(3,4-dichlorophenyl)-1-ethyl-5-(3-fluoro-4-methoxy-phenyl)-6-methyl-4-oxo-pyridine-3-carboxylic acid] | 3 (3=41-60%) | 3 (3=41-60%) | 3 (3=41-60%) | 3 (3=41-60%) | 4 (4=61-80%) | 1 (1=0-20%) | 2 (2=21-40%) | 4 (4=61-80%) | 2 (2=21-40%) | 3 (3=41-60%) | 3 (3=41-60%) | 1 (1=0-20%) |
| CCn1c(C)c(-c2ccc(Cl)cc2C)c(=O)c(C(=O)O)c1-c1ccc(Cl)c(Cl)c1 [Compound 156, 5-(4-chloro-2-methyl-phenyl)-2-(3,4-dichlorophenyl)-1-ethyl-6-methyl-4-oxo-pyridine-3-carboxylic acid] | 4 (4=61-80%) | 3 (3=41-60%) | 4 (4=61-80%) | 4 (4=61-80%) | 4 (4=61-80%) | 4 (4=61-80%) | 1 (1=0-20%) | 4 (4=61-80%) | 5 (5=81-100%) | 1 (1=0-20%) | 2 (2=21-40%) | 0 |
| CCn1c(C)c(-c2ccc(Cl)cc2)c(=O)c(C(=O)O)c1-c1ccc(F)cc1F [Compound 130, 5-(4-chlorophenyl)-2-(2,4-difluorophenyl)-1-ethyl-6-methyl-4-oxo-pyridine-3-carboxylic acid] | 3 (3=41-60%) | 3 (3=41-60%) | 3 (3=41-60%) | 3 (3=41-60%) | 4 (4=61-80%) | 2 (2=21-40%) | 3 (3=41-60%) | 5 (5=81-100%) | 4 (4=61-80%) | 3 (3=41-60%) | 3 (3=41-60%) | 3 (3=41-60%) |
| CCn1c(C)c(-c2ccc(Cl)cc2)c(=O)c(C(=O)O)c1-c1ccc(Br)c(F)c1 [Compound 129, 2-(4-bromo-3-fluoro-phenyl)-5-(4-chlorophenyl)-1-ethyl-6-methyl-4-oxo-pyridine-3-carboxylic acid] | 3 (3=41-60%) | 3 (3=41-60%) | 2 (2=21-40%) | 3 (3=41-60%) | 3 (3=41-60%) | 2 (2=21-40%) | 5 (5=81-100%) | 5 (5=81-100%) | 2 (2=21-40%) | 2 (2=21-40%) | 2 (2=21-40%) | 1 (1=0-20%) |
| CCn1c(C)c(-c2ccc(Cl)cc2F)c(=O)c(C(=O)O)c1-c1ccc(Cl)c(Cl)c1 [Compound 153, 5-(4-chloro-2-fluoro-phenyl)-2-(3,4-dichlorophenyl)-1-ethyl-6-methyl-4-oxo-pyridine-3-carboxylic acid] | 5 (5=81-100%) | 5 (5=81-100%) | 5 (5=81-100%) | 5 (5=81-100%) | 5 (5=81-100%) | 5 (5=81-100%) | 5 (5=81-100%) | 5 (5=81-100%) | 5 (5=81-100%) | 4 (4=61-80%) | 5 (5=81-100%) | 4 (4=61-80%) |
